In PMC5762315, “Inhibition of polo-like kinase 4 (PLK4): a new therapeutic option for rhabdoid tumors and pediatric medulloblastoma” (Oncotarget, 2017):
Values joined by “and” are separate entries in the source; they are usually repeats but may differ in a detail not shown here. Identical values can stand only once.

Experiments:
Assay in all cases: LanthaScreen Eu Kinase Binding Assay, panel of 486 biochemical kinase assays
various kinases [1] = target: various kinases (Homo sapiens, UniProt O14936); settings: CASK
various kinases [2] = target: various kinases (Homo sapiens, UniProt P00519, M351T); settings: ABL1 M351T
various kinases [3] = target: various kinases (Homo sapiens, UniProt P06241); settings: FYN A
various kinases [4] = target: various kinases (Homo sapiens, UniProt P10721, N822K); settings: KIT N822K
various kinases [5] = target: various kinases (Homo sapiens, UniProt P19525); settings: EIF2AK2 (PKR)
various kinases [6] = target: various kinases (Homo sapiens, UniProt P22612); settings: kinase PRKACG (PRKAC gamma); LanthaScreen Binding
various kinases [7] = target: various kinases (Homo sapiens, UniProt P24941)
various kinases [8] = target: various kinases (Homo sapiens, UniProt P29320); settings: EPHA3
various kinases [9] = target: T1, various kinases (Homo sapiens, UniProt P36897); settings: kinase TGFBR1 (ALK5); LanthaScreen Binding
T1 sequence (P36897 34-503): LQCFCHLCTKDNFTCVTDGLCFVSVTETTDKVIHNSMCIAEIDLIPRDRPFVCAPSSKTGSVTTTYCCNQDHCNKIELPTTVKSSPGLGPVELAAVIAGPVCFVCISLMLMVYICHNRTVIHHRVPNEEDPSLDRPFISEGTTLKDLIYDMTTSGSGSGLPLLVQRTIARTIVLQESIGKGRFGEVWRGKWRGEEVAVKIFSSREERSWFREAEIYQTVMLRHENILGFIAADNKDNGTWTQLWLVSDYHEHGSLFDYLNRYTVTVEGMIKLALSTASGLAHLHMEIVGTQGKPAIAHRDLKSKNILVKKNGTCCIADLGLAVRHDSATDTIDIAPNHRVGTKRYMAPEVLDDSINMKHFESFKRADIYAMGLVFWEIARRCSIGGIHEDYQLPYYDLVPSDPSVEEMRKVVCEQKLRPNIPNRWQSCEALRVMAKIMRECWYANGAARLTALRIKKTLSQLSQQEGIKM

various kinases [10] = target: various kinases (Homo sapiens, UniProt P50750)
various kinases [11] = target: various kinases (Homo sapiens, UniProt P53779); settings: MAPK10 (JNK3)
various kinases [12] = target: various kinases (Homo sapiens, UniProt P57058); settings: HUNK
various kinases [13] = target: various kinases (Homo sapiens, UniProt Q13555); settings: CAMK2G (CaMKII gamma)
various kinases [14] = target: various kinases (Homo sapiens, UniProt Q14004); settings: CDK13/cyclin K
various kinases [15] = target: various kinases (Homo sapiens, UniProt Q15569); settings: kinase TESK1; LanthaScreen Binding
various kinases [16] = target: various kinases (Homo sapiens, UniProt Q8NEV4); settings: MYO3A (MYO3 alpha)
various kinases [17] = target: various kinases (Homo sapiens, UniProt Q8NI60); settings: ADCK3
various kinases [18] = target: various kinases (Homo sapiens, UniProt Q8WXR4); settings: MYO3B (MYO3 beta)
various kinases [19] = target: various kinases (Homo sapiens, UniProt Q9BWU1)
various kinases [20] = target: various kinases (Homo sapiens, UniProt Q9NRM7); settings: LATS2
various kinases [21] = target: various kinases (Homo sapiens, UniProt Q9Y2H1); settings: kinase STK38L (NDR2); LanthaScreen Binding
various kinases [22] = target: various kinases (Homo sapiens, UniProt Q9Y3S1); settings: kinase WNK2; LanthaScreen Binding
Chain of various kinases (Homo sapiens, UniProt Q9Y3S1) (Q9Y3S1 whole entry): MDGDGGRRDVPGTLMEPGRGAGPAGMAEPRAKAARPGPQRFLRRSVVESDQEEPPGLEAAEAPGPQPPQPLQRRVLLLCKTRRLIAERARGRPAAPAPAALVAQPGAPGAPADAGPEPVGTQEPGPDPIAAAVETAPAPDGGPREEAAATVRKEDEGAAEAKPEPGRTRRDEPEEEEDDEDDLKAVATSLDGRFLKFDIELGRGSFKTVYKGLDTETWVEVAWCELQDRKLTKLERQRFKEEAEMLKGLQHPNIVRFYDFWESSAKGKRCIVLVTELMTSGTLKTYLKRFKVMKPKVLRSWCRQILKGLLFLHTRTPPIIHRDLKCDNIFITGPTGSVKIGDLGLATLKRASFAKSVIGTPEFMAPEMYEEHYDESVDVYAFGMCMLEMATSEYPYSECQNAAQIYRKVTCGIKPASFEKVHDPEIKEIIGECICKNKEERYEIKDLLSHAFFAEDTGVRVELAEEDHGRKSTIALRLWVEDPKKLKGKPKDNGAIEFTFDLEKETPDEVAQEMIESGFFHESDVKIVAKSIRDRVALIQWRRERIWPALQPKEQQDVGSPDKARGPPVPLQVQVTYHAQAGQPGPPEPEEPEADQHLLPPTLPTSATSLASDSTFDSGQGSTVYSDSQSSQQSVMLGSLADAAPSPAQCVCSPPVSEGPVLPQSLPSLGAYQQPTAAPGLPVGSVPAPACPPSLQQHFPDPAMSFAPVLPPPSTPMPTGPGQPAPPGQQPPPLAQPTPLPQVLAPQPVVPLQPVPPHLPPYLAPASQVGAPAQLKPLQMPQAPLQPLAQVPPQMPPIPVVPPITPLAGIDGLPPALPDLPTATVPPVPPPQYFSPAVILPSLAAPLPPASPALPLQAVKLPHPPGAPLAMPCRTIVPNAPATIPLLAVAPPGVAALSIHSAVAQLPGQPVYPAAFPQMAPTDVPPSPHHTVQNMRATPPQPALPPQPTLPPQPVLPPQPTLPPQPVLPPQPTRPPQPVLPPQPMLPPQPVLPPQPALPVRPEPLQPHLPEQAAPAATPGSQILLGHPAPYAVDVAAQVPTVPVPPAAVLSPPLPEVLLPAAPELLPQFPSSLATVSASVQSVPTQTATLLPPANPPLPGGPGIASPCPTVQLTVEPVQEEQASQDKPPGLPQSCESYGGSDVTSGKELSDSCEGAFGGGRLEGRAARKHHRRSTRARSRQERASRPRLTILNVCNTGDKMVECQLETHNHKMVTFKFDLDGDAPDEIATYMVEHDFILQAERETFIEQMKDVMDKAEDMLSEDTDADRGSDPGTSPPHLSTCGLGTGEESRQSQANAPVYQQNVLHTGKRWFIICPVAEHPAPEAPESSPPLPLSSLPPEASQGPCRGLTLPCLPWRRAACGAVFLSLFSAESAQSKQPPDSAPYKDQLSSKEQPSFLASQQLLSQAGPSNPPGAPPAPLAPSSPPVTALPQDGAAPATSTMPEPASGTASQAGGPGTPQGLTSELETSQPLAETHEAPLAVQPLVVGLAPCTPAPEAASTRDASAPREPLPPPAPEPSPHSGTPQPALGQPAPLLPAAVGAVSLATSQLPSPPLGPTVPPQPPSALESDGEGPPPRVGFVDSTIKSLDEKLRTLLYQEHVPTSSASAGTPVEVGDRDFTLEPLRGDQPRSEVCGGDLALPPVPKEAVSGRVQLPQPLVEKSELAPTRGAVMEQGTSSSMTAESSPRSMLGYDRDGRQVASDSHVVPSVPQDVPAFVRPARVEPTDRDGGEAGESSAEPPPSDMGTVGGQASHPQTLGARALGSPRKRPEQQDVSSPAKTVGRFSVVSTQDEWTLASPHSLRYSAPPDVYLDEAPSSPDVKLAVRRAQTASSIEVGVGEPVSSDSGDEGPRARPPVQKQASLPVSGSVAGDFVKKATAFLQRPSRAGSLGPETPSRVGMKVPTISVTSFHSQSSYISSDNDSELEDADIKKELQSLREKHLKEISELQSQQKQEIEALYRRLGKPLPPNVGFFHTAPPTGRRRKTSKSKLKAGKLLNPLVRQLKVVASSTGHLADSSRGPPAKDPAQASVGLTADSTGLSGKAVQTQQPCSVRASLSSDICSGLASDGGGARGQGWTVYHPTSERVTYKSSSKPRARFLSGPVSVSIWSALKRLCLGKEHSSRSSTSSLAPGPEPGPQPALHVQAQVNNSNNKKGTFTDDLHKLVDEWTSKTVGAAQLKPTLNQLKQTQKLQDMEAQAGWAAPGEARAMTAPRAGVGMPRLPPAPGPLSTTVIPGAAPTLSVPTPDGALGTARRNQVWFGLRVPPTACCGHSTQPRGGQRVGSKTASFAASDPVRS

Chain of various kinases (Homo sapiens, UniProt Q9Y2H1) (Q9Y2H1 whole entry): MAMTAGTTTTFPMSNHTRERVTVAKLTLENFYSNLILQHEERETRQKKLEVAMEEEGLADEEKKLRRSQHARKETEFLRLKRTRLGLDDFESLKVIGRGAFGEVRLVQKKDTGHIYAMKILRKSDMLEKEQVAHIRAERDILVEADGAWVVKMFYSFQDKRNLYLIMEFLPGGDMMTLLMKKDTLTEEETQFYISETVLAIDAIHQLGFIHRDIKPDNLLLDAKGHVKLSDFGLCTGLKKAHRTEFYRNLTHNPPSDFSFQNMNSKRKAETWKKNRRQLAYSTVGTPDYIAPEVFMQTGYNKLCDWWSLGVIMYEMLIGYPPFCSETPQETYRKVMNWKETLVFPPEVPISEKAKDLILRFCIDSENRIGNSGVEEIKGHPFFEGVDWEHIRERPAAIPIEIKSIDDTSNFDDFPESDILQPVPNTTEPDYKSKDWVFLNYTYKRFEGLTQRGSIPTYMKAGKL
Chain of various kinases (Homo sapiens, UniProt P22612) (P22612 whole entry): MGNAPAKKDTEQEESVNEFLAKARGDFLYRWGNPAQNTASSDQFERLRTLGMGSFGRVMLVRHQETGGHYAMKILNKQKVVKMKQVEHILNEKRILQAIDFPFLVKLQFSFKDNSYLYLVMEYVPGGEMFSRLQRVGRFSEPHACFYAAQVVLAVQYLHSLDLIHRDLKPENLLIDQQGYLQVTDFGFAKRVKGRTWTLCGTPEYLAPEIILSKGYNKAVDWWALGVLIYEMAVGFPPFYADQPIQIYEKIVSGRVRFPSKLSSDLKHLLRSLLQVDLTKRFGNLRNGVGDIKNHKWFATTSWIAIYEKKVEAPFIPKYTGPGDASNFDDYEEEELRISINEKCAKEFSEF
Chain of various kinases (Homo sapiens, UniProt Q15569) (Q15569 whole entry): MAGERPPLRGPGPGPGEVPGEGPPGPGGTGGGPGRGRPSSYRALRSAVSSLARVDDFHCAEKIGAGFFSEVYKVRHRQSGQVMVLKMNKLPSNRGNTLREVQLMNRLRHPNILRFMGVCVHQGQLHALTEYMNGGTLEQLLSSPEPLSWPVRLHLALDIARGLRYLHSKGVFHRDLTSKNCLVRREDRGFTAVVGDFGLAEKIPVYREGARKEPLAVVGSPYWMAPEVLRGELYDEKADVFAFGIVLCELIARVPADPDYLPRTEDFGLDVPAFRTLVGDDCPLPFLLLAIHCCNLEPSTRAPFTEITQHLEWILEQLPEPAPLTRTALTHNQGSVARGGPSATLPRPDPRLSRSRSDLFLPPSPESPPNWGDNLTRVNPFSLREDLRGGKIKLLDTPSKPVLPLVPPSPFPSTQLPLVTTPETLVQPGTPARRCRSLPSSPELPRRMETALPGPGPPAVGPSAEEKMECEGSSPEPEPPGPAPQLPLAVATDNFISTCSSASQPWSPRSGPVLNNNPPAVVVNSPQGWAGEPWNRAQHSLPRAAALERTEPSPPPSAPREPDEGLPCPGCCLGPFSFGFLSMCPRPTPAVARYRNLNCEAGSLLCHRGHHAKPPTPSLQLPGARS
Chain of various kinases (Homo sapiens, UniProt P50750) (P50750 whole entry): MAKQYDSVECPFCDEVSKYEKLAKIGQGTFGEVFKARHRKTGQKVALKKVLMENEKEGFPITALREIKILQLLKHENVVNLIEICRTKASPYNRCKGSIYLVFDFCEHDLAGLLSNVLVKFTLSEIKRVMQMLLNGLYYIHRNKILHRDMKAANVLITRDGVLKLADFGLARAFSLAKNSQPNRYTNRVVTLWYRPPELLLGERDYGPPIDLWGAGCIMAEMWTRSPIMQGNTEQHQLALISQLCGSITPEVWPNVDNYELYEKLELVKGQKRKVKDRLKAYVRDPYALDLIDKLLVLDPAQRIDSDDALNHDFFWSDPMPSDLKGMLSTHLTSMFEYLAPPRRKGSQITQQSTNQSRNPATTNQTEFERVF
Chain of various kinases (Homo sapiens, UniProt Q9BWU1) (Q9BWU1 whole entry): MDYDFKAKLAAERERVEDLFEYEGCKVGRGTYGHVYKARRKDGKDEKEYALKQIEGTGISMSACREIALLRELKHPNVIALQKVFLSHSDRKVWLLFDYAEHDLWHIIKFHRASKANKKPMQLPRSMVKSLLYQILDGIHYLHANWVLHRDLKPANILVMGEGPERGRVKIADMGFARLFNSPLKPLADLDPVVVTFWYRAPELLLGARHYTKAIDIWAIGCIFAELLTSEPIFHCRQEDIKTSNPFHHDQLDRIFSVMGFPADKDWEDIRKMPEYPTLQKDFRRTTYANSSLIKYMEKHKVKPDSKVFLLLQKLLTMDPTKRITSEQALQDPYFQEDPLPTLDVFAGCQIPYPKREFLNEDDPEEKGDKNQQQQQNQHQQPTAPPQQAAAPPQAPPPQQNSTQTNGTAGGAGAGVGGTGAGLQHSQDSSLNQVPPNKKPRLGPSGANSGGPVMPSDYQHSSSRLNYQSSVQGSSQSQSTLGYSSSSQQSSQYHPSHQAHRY
Chain of various kinases (Homo sapiens, UniProt P53779) (P53779 whole entry): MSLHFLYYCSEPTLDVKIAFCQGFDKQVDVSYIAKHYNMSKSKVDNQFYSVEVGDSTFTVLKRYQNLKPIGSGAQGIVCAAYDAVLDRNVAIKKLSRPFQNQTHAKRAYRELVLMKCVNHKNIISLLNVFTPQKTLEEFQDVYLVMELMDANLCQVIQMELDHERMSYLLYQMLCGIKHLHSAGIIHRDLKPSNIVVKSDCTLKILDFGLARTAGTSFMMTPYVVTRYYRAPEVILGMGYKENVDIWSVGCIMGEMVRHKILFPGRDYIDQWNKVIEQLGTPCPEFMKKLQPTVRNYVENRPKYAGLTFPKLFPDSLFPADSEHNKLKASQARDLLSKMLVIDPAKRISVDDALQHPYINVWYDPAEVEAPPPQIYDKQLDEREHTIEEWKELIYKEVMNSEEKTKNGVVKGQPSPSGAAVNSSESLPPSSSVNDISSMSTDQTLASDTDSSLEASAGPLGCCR

## COc1ccc2c(c1)[C@]1(C[C@H]1c1ccc3c(/C=C/c4ccc(CN5C[C@@H](C)O[C@@H](C)C5)cc4)n[nH]c3c1)C(=O)N2 [CFI-400945]
Various kinases [1]
  % Inhibition: 57% and 65%
Various kinases [2]
  % Inhibition: 78% and 79%
Various kinases [3]
  % Inhibition: 8%
Various kinases [4]
  % Inhibition: 6% and 3%
Various kinases [5]
  % Inhibition: 3% and -4%
Various kinases [6]
  % Inhibition Average: 18%
  % Inhibition Duplicate #1: 25%
  % Inhibition Duplicate #2: 11%
Various kinases [7]; CDK2/cyclin A1
  % Inhibition: 12% and 19%
Various kinases [7]; CDK2/cyclin E1
  % Inhibition: 9%
Various kinases [7]; CDK2/cyclin O
  % Inhibition: 13% and 19%
Various kinases [8]
  % Inhibition: -2% and -1%
Various kinases [9]
  % Inhibition Average: 3%
  % Inhibition Duplicate #1: 4%
  % Inhibition Duplicate #2: 3%
Various kinases [10]; CDK9 (Inactive)
  % Inhibition: 13% and 12%
Various kinases [10]; CDK9/cyclin K
  % Inhibition: -3% and -6%
Various kinases [11]
  % Inhibition: 3% and -3%
Various kinases [12]
  % Inhibition: 21% and 22%
Various kinases [13]
  % Inhibition: 50% and 36%
Various kinases [14]
  % Inhibition: -6% and 0%
Various kinases [15]
  % Inhibition Average: 12%
  % Inhibition Duplicate #1: 13%
  % Inhibition Duplicate #2: 11%
Various kinases [16]
  % Inhibition: 8%
Various kinases [17]
  % Inhibition: -1% and -4%
Various kinases [18]
  % Inhibition: 7% and 6%
Various kinases [19]; CDK11 (Inactive)
  % Inhibition: -3% and -1%
Various kinases [19]; CDK11/cyclin C
  % Inhibition: 16% and 13%
Various kinases [20]
  % Inhibition: 16% and 14%
Various kinases [21]
  % Inhibition Average: 16%
  % Inhibition Duplicate #1: 10%
  % Inhibition Duplicate #2: 21%
Various kinases [22]
  % Inhibition Average: -3%
  % Inhibition Duplicate #1: -6%
  % Inhibition Duplicate #2: 0%
